According to US12234227B2, “Pyrazole derivatives as H4 antagonist compounds” (NXERA PHARMA UK LIMITED, priority 2018, dated 2025):
Counter-ions that a name gives are not always drawn. Like-named read-outs stand apart in the source and are kept apart here.

Key:
human H4 receptor [1] = target: T1, human H4 receptor (Homo sapiens, UniProt Q9H3N8); test: H4 Antagonist Functional cAMP Gi Assay; format: cell-based; conditions: H4 antagonist activity; for Kb: read-out: Human H4 CAMP fpKb (converted)
T1 construct: expressed in transfected cells; host or cells: HEKf cells transduced with baculovirus
Procedure: H4 Antagonist Functional cAMP Gi Assay
HEKf cells were infected overnight using baculovirus expressing the human H4 receptor, then centrifuged at 1,200 rpm for 5 min, frozen in cell freezing medium (Sigma) and stored at −150° C. On the day of assay, the cells were thawed and resuspended in HBSS with 500 nM IBMX to achieve a density of 1,500 cells/well. H4 ligands were prepared in DMSO and stamped by LabCyte ECHO acoustic dispensing at 25 nL in low volume plates. 10 μL/well cells were plated in the presence of 1 μM forskolin, subjected to centrifugation at 1,200 rpm for 1 min and incubated for 30 min prior to addition of Cisbio cAMP detection reagents to a total volume 20 μL/well. For the antagonist assay, cells were pre-incubated with H4 antagonist ligands for 30 min prior to addition of EC80 concentration of histamine and a further 30 min incubation. Following detection reagent addition and shaking at room temperature for 60 min, cAMP accumulation was measured using HTRF on a PheraStar plate reader. EC50 values were generated using a 4-parameter logistical fit equation to quantify agonist potencies. Functional antagonist affinity values were generated using the Cheng-Prusoff equation to calculate a pKb value using the antagonist assay data.

hERG [2] = target: T2, hERG (Homo sapiens, UniProt Q12809); test: hERG Assay (QPatch automated patch clamp; single-concentration assay at 30 μM and pIC50 assay)
human H4 receptor [3] = target: T1, human H4 receptor; test: H4 Antagonist Functional Dynamic Mass Redistribution Assay; format: cell-based; conditions: H4 antagonist activity; for Kb: read-out: Human H4 DMR fpKb (converted)
Procedure: H4 Antagonist Functional Dynamic Mass Redistribution Assay
HEKf cells were infected using baculovirus expressing the human H4 receptor, plated into fibronectin-coated EPIC plates at a density of 10,000 cells/well and incubated overnight at 37° C. The medium on cells was changed to 30 μL HBSS with 20 mM HEPES per well and 30 nL DMSO were added per well by LabCyte ECHO acoustic dispensing. Following 2 h equilibration at room temperature, 30 nL of H4 ligands prepared in DMSO were stamped by LabCyte ECHO acoustic dispensing into seeded EPIC plates and cellular dynamic mass redistribution was monitored using a Corning EPIC plate reader. Following 45 min measurement, 30 nL/well of histamine EC80 was added and monitored to obtain antagonist assay data. Maximum baseline-corrected responses in […] were used to generate concentration response curves. EC50 values were generated using a 4-parameter logistical fit equation to quantify agonist potencies. Functional antagonist affinity values were generated using the Cheng-Prusoff equation to calculate a pKb value using the antagonist assay data.

hERG [4] = target: T2, hERG; test: in vitro
[5] = human, CHO cells stably expressing hERG

T2 sequence (Q12809 whole entry): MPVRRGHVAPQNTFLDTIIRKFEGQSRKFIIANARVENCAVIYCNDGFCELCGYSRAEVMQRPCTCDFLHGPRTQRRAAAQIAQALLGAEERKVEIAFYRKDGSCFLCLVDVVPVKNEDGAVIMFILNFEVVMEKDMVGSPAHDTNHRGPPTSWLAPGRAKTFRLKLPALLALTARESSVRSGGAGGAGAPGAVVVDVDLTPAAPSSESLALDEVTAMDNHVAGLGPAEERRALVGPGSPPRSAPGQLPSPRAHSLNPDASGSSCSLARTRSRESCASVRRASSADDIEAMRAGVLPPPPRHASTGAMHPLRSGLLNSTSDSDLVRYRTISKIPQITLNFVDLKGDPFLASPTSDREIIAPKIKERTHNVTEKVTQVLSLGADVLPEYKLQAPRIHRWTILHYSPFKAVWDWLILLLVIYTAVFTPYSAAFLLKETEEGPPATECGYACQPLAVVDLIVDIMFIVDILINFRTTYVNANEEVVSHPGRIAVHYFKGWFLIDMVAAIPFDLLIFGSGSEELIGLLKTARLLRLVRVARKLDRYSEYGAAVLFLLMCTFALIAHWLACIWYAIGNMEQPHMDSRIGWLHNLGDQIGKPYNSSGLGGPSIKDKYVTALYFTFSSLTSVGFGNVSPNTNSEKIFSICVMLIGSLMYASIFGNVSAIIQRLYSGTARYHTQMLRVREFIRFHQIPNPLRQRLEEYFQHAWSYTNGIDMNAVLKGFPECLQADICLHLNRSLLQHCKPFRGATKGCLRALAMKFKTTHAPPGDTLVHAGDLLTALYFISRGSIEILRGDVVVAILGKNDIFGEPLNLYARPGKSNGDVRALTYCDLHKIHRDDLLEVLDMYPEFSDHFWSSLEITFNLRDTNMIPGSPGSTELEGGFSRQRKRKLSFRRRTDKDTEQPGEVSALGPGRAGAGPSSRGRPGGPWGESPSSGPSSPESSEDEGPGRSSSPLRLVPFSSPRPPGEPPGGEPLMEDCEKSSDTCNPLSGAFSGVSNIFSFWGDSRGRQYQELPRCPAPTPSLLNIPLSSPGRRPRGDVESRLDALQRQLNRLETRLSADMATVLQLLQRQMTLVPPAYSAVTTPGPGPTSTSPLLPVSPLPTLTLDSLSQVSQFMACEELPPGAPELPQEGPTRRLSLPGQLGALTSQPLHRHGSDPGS
T1 sequence (Q9H3N8 whole entry): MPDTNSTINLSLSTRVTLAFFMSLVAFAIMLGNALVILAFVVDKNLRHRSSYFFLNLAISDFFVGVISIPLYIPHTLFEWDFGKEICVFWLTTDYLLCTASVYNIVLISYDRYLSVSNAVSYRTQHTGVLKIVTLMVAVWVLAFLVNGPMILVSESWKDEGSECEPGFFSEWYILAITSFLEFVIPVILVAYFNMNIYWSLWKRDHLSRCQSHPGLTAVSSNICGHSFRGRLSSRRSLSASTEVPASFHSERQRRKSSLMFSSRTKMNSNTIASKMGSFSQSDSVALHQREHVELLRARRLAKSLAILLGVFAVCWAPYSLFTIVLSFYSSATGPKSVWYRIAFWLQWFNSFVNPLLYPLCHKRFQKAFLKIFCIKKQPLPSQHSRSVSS

SMILES: CN[C@@H]1CCN(c2cc(-c3[nH]ncc3C)nc(N)n2)C1 [Example 4-1, (R)-4-(4-methyl-1H-pyrazol-5-yl)-6-(3-(methylamino)pyrrolidin-1-yl)pyrimidin-2-amine]
- Kb (human H4 receptor [1]): 1.26 nM
- IC50 (hERG [2]): ≥ 100000 nM
- inhibition at 30 µM (hERG [2]; [5]): 14%
- Kb (human H4 receptor [3]): 0.501 nM

SMILES: CN[C@@H]1CCN(c2cc(-c3[nH]ncc3Cl)nc(N)n2)C1 [Example 4-3, (R)-4-(4-chloro-1H-pyrazol-5-yl)-6-(3-(methylamino)pyrrolidin-1-yl)pyrimidin-2-amine]
- Kb (human H4 receptor [1]): 1.26 nM
- inhibition at 30 µM (hERG [2]; [5]): 34%
- Kb (human H4 receptor [3]): 1.26 nM

SMILES: Cc1cn[nH]c1-c1cc(N2CC[C@@H](N)C2)nc(N)n1 [Example 4-5]
- Kb (human H4 receptor [1]): 10 nM
- inhibition at 30 µM (hERG [2]; [5]): 18%
- Kb (human H4 receptor [3]): 2.51 nM

SMILES: CN[C@@H]1CCN(c2cc(-c3[nH]nc(C)c3C)nc(N)n2)C1 [Example 7-1, (R)-4-(3,4-dimethyl-1H-pyrazol-5-yl)-6-(3-(methylamino)pyrrolidin-1-yl)pyrimidin-2-amine dihydrochloride]
- Kb (human H4 receptor [1]): 6.31 nM
- inhibition at 30 µM (hERG [2]; [5]): 14%
- Kb (human H4 receptor [3]): 20 nM

SMILES: CCc1n[nH]c(-c2cc(N3CC[C@@H](NC)C3)nc(N)n2)c1C [Example 7-3]
- Kb (human H4 receptor [1]): 31.6 nM
- Kb (human H4 receptor [3]): 20 nM

SMILES: CN[C@@H]1CCN(c2cc(-c3cnn(C)c3)nc(N)n2)C1 [Example 8-2]
- Kb (human H4 receptor [1]): 31.6 nM
- inhibition at 30 µM (hERG [2]; [5]): 13%
- Kb (human H4 receptor [3]): 1.26 nM

SMILES: CN[C@@H]1CCN(c2cc(-c3cnn(C4CC4)c3)nc(N)n2)C1 [Example 8-4]
- Kb (human H4 receptor [1]): 50.1 nM
- inhibition at 30 µM (hERG [2]; [5]): 54%
- Kb (human H4 receptor [3]): 20 nM

SMILES: CN[C@@H]1CCN(c2cc(-c3cnn(C(F)(F)F)c3)nc(N)n2)C1 [Example 8-7, dihydrochloride]
- Kb (human H4 receptor [1]): 3.16 nM
- IC50 (hERG [2]; [5]): 31600 nM
- inhibition at 30 µM (hERG [2]; [5]): 49%
- Kb (human H4 receptor [3]): 3.98 nM

SMILES: CN[C@@H]1CCN(c2cc(-c3cnn(CCOC)c3)nc(N)n2)C1 [Example 8-10]
- Kb (human H4 receptor [1]): 126 nM
- IC50 (hERG [2]): ≥ 100000 nM
- Kb (human H4 receptor [3]): 126 nM

SMILES: CNC1CN(c2cc(-c3cnn(C(F)(F)F)c3)nc(N)n2)C1 [Example 8-16, ditrifluoroacetate]
- Kb (human H4 receptor [1]): 0.794 nM
- IC50 (hERG [2]): > 100000 nM
- inhibition at 30 µM (hERG [2]; [5]): 33%
- Kb (human H4 receptor [3]): 1.58 nM

SMILES: CN[C@@H]1CCN(c2cc(-c3cn[nH]c3C)nc(N)n2)C1 [Example 9-1]
- Kb (human H4 receptor [1]): 7.94 nM
- IC50 (hERG [2]): ≥ 100000 nM
- Kb (human H4 receptor [3]): 3.98 nM

SMILES: CN[C@@H]1CCN(c2cc(-c3cn[nH]c3C(C)C)nc(N)n2)C1 [Example 9-3]
- Kb (human H4 receptor [1]): 15.8 nM
- inhibition at 30 µM (hERG [2]; [5]): 24%
- Kb (human H4 receptor [3]): 15.8 nM

SMILES: CN[C@@H]1CCN(c2cc(-c3cn[nH]c3C(F)(F)F)nc(N)n2)C1 [Example 9-6]
- Kb (human H4 receptor [1]): 6.31 nM
- inhibition at 30 µM (hERG [2]; [5]): 18%
- Kb (human H4 receptor [3]): 2.51 nM

SMILES: Cc1[nH]ncc1-c1cc(N2CC[C@@H](N)C2)nc(N)n1 [Example 9-7]
- Kb (human H4 receptor [1]): 15.8 nM
- inhibition at 30 µM (hERG [2]; [5]): 12%
- Kb (human H4 receptor [3]): 10 nM

SMILES: CN[C@@H]1CCN(c2cc(-c3c(C)n[nH]c3C)nc(N)n2)C1 [Example 10-1]
- Kb (human H4 receptor [1]): 50.1 nM
- inhibition at 30 µM (hERG [2]; [5]): 21%
- Kb (human H4 receptor [3]): 39.8 nM

SMILES: CN[C@@H]1CCN(c2cc(-c3cn(C)nc3C)nc(N)n2)C1 [Example 11-1, (R)-4-(1,3-dimethyl-1H-pyrazol-4-yl)-6-(3-(methylamino)pyrrolidin-1-yl)pyrimidin-2-amine]
- Kb (human H4 receptor [1]): 12.6 nM
- IC50 (hERG [2]): ≥ 100000 nM
- inhibition at 30 µM (hERG [2]; [5]): 2%
- Kb (human H4 receptor [3]): 2.51 nM

SMILES: CCc1nn(C)cc1-c1cc(N2CC[C@@H](NC)C2)nc(N)n1 [Example 11-2, dihydrochloride]
- Kb (human H4 receptor [1]): 79.4 nM
- inhibition at 30 µM (hERG [2]; [5]): 20%
- Kb (human H4 receptor [3]): 79.4 nM

SMILES: CN[C@@H]1CCN(c2cc(-c3cn(C(F)F)nc3C)nc(N)n2)C1 [Example 11-6]
- Kb (human H4 receptor [1]): 6.31 nM
- inhibition at 30 µM (hERG [2]; [5]): 90%
- Kb (human H4 receptor [3]): 3.98 nM

SMILES: CN[C@@H]1CCN(c2cc(-c3cnn(C)c3C)nc(N)n2)C1 [Example 12-1]
- Kb (human H4 receptor [1]): 7.94 nM
- IC50 (hERG [2]): ≥ 100000 nM
- Kb (human H4 receptor [3]): 2.51 nM

SMILES: CN[C@@H]1CCN(c2cc(-c3cnn(C(F)F)c3C)nc(N)n2)C1 [Example 12-3]
- Kb (human H4 receptor [1]): 15.8 nM
- inhibition at 30 µM (hERG [2]; [5]): 47%
- Kb (human H4 receptor [3]): 6.31 nM

SMILES: CN[C@@H]1CCN(c2cc(-c3c(C)nn(C)c3C)nc(N)n2)C1 [Example 13-1]
- Kb (human H4 receptor [1]): 20 nM
- inhibition at 30 µM (hERG [2]; [5]): 7%
- Kb (human H4 receptor [3]): 5.01 nM

SMILES: CN[C@@H]1CCN(c2cc(N)nc(-c3cnn(C)c3C)c2)C1 [Example 14-1, (R)-6-(1,5-dimethyl-1H-pyrazol-4-yl)-4-(3-(methylamino)pyrrolidin-1-yl)pyridin-2-amine dihydrochloride]
- Kb (human H4 receptor [1]): 20 nM
- Kb (human H4 receptor [3]): 12.6 nM

SMILES: CNC1CN(c2cc(-c3cc(C(F)(F)F)n[nH]3)nc(N)n2)C1 [Example 15-2]
- Kb (human H4 receptor [3]): 10 nM

SMILES: Cc1cn[nH]c1-c1cc(N2C[C@H]3CCCN[C@H]3C2)nc(N)n1 [Example 16-7, ditrifluoroacetate]
- IC50 (hERG [2]): ≥ 100000 nM
- Kb (human H4 receptor [3]): 6.31 nM

SMILES: CN[C@@H]1CCN(c2cc(-c3[nH]ncc3C(F)F)nc(N)n2)C1 [Example 16-8, ditrifluoroacetate]
- Kb (human H4 receptor [3]): 25.1 nM

SMILES: CN[C@@H]1CCN(c2cc(-c3[nH]ncc3C(F)(F)F)nc(N)n2)C1 [Example 16-9, ditrifluoroacetate]
- Kb (human H4 receptor [3]): 20 nM

SMILES: CN[C@@H]1CCN(c2cc(-c3[nH]ncc3Br)nc(N)n2)C1 [Example 16-12]
- Kb (human H4 receptor [1]): 0.398 nM
- inhibition at 30 µM (hERG [2]; [5]): 45%
- Kb (human H4 receptor [3]): 0.126 nM

SMILES: CNC1CN(c2cc(-c3[nH]ncc3Br)nc(N)n2)C1 [Example 16-13]
- Kb (human H4 receptor [3]): 5.01 nM

SMILES: CN[C@@H]1CCN(c2cc(-c3[nH]ncc3SC)nc(N)n2)C1 [Example 16-14]
- Kb (human H4 receptor [3]): 25.1 nM

SMILES: CNC1CN(c2cc(-c3[nH]nc(C)c3C)nc(N)n2)C1 [Example 17-1]
- IC50 (hERG [2]): ≥ 31600 nM
- Kb (human H4 receptor [3]): 1.58 nM

SMILES: CN[C@@H]1CCN(c2cc(-c3[nH]nc(C)c3F)nc(N)n2)C1 [Example 17-3]
- Kb (human H4 receptor [3]): 3.98 nM

SMILES: CN[C@H]1CCN(c2cc(-c3[nH]nc(C)c3Cl)nc(N)n2)C1 [Example 17-4, dihydrochloride]
- inhibition at 30 µM (hERG [2]; [5]): 39%
- Kb (human H4 receptor [3]): 5.01 nM

SMILES: CNC1CN(c2cc(-c3[nH]nc(C)c3Cl)nc(N)n2)C1 [Example 17-5]
- IC50 (hERG [2]): 25100 nM
- Kb (human H4 receptor [3]): 0.794 nM

SMILES: Cc1n[nH]c(-c2cc(N3CC(N)C3)nc(N)n2)c1Cl [Example 17-6, ditrifluoroacetate]
- Kb (human H4 receptor [3]): 12.6 nM

SMILES: Cc1n[nH]c(-c2cc(N3C[C@H]4CCCN[C@H]4C3)nc(N)n2)c1Cl [Example 17-7, dihydrochloride]
- inhibition at 30 µM (hERG [4]): 38%
- Kb (human H4 receptor [3]): 31.6 nM

SMILES: CN[C@@H]1CCN(c2cc(-c3[nH]nc(C)c3O)nc(N)n2)C1 [Example 17-8]
- Kb (human H4 receptor [3]): 39.8 nM

SMILES: CN[C@@H]1CCN(c2cc(-c3[nH]nc(C)c3OC)nc(N)n2)C1 [Example 17-9]
- Kb (human H4 receptor [3]): 3.98 nM

SMILES: CNC1CN(c2cc(-c3[nH]nc(C(F)F)c3C)nc(N)n2)C1 [Example 17-11, ditrifluoroacetate]
- Kb (human H4 receptor [3]): 3.16 nM

SMILES: CCc1n[nH]c(-c2cc(N3CC[C@@H](NC)C3)nc(N)n2)c1F [Example 17-13]
- Kb (human H4 receptor [3]): 50.1 nM

SMILES: CN[C@@H]1CCN(c2cc(-c3[nH]nc(OC)c3Cl)nc(N)n2)C1 [Example 17-17]
- inhibition at 30 µM (hERG [2]; [5]): 49%
- Kb (human H4 receptor [3]): 5.01 nM

SMILES: CN[C@@H]1CCN(c2cc(N)nc(-c3[nH]ncc3C)c2)C1 [Example 18-1, ditrifluoroacetate]
- Kb (human H4 receptor [3]): 0.631 nM

SMILES: CC(C)c1cc(N2CC[C@@H](N)C2)nc(N)n1 [JNJ-39758979]
- Human H4 CAMP fpKb (human H4 receptor [1]): 8.1
- hERG pIC50 (hERG [2]; QPatch, 1, 3, 10 and 30 μM): ≤4.0
- Human H4 DMR fpKb (human H4 receptor [3]): 8.5
